Source: PubChem BioAssay AID258 (DTP/NCI, 2004)
Several values for one entry are separate records, joined by “and”; a condition that tells them apart may be missing. Identical values can stand only once. Inconclusive results and toxic doses are left out.

Test system: CD2F1 mice, L1210 leukemia sc, survival T/C
Assay: NCI In Vivo Anticancer Drug Screen. Data for tumor model L1210 Leukemia (subcutaneous) in CD2F1 (CDF1) mice
Conditions: endpoint: median survival time, higher = longer survival
Method in brief: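 Mice with transplanted tumor dosed; survival/tumor size read; T/C vs vehicle controls.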

[1] = dose: 65.0 mg/kg/injection, schedule: Q01DX Z (sc), vehicle: methylcellulose (MC)
[2] = dose: 108.0 mg/kg/injection, schedule: Q01DX Z (sc), vehicle: methylcellulose (MC)
[3] = dose: 180.0 mg/kg/injection, schedule: Q01DX Z (sc), vehicle: methylcellulose (MC)
[4] = dose: 833.0 mg/kg/injection, schedule: Q01DX Z (sc), vehicle: methylcellulose (MC)

`CC[C@@]1(O)C(=O)OCc2c1cc1n(c2=O)Cc2cc3ccccc3nc2-1` was tested, and the T/C (dose: 0.13 mg/kg/injection, schedule: Q01DX Z (sc), vehicle: carboxymethylcellulose (CMC)) was 111 % of control, the T/C (dose: 0.22 mg/kg/injection, schedule: Q01DX Z (sc), vehicle: carboxymethylcellulose (CMC)) was 111 % of control and the T/C (dose: 0.6 mg/kg/injection, schedule: Q01DX Z (sc), vehicle: carboxymethylcellulose (CMC)) was 111 % of control. The T/C (dose: 1.0 mg/kg/injection, schedule: Q01DX Z (sc), vehicle: carboxymethylcellulose (CMC)) was 122 % of control.
With `CCn1cnc2c(SC)ncnc21` the T/C [1] was 100 % of control, the T/C [2] was 100 % of control and the T/C [3] was 100 % of control.
In the case of `C1CN1c1nc(N2CC2)nc(N2CC2)n1`, the T/C (dose: 0.1 mg/kg/injection, schedule: Q01DX009 (ip), vehicle: saline) is reported as 110 % of control, the T/C (dose: 0.1 mg/kg/injection, schedule: Q01DX009 (sc), vehicle: saline) is reported as 108 % of control and the T/C (dose: 0.2 mg/kg/injection, schedule: Q01DX009 (ip), vehicle: saline) is reported as 117 % of control. For the same compound, the T/C (dose: 0.2 mg/kg/injection, schedule: Q01DX009 (sc), vehicle: saline) was 118 % of control, the T/C (dose: 0.27 mg/kg/injection, schedule: Q01DX009 (ip), vehicle: saline) was 114 % of control and the T/C (dose: 0.27 mg/kg/injection, schedule: Q01DX009 (sc), vehicle: saline) was 110 % of control. The T/C (dose: 0.4 mg/kg/injection, schedule: Q01DX009 (ip), vehicle: saline) was 151 % of control, the T/C (dose: 0.45 mg/kg/injection, schedule: Q01DX009 (ip), vehicle: saline) was 157 % of control and the T/C (dose: 0.45 mg/kg/injection, schedule: Q01DX009 (sc), vehicle: saline) was 168 % of control. For the same compound, the T/C (dose: 0.6 mg/kg/injection, schedule: Q01DX009 (ip), vehicle: saline) was 184 % of control, the T/C (dose: 0.6 mg/kg/injection, schedule: Q01DX009 (sc), vehicle: saline) was 180 % of control and the T/C (dose: 0.8 mg/kg/injection, schedule: Q01DX009 (ip), vehicle: saline) was 119 % of control. The T/C (dose: 0.9 mg/kg/injection, schedule: Q01DX009 (ip), vehicle: saline) was 101 % of control and the T/C (dose: 0.9 mg/kg/injection, schedule: Q01DX009 (sc), vehicle: saline) was 113 % of control.
With `NCCCNCCCCNC(=O)C(O)NC(=O)CC(O)CCCCN=C(N)N` (stereo unspecified) the T/C (dose: 3.0 mg/kg/injection, schedule: Q01DX009 (ip), vehicle: saline) was 156 % of control, the T/C (dose: 6.0 mg/kg/injection, schedule: Q01DX009 (ip), vehicle: saline) was 168 % of control and the T/C (dose: 6.25 mg/kg/injection, schedule: Q01DX009 (ip), vehicle: saline) was 163 % of control. The T/C (dose: 12.0 mg/kg/injection, schedule: Q01DX009 (ip), vehicle: saline) was 196 % of control, the T/C (dose: 12.5 mg/kg/injection, schedule: Q01DX009 (ip), vehicle: saline) was 184 % of control and the T/C (dose: 25.0 mg/kg/injection, schedule: Q01DX009 (ip), vehicle: saline) was 208 % of control and 210 % of control. The T/C (dose: 50.0 mg/kg/injection, schedule: Q01DX009 (ip), vehicle: saline) was 198 % of control and 216 % of control and the T/C (dose: 100.0 mg/kg/injection, schedule: Q01DX009 (ip), vehicle: saline) was 220 % of control.
`CCOC(C)C(/C=N/NC(N)=S)=NNC(N)=S` (stereo unspecified) was tested, and the T/C (dose: 65.0 mg/kg/injection, schedule: Q01DX Z (sc), vehicle: carboxymethylcellulose (CMC)) was 110 % of control, the T/C (dose: 108.0 mg/kg/injection, schedule: Q01DX Z (sc), vehicle: carboxymethylcellulose (CMC)) was 110 % of control and the T/C (dose: 180.0 mg/kg/injection, schedule: Q01DX Z (sc), vehicle: carboxymethylcellulose (CMC)) was 120 % of control. The T/C (dose: 300.0 mg/kg/injection, schedule: Q01DX Z (sc), vehicle: carboxymethylcellulose (CMC)) was 110 % of control.
With `O=NN(CCCl)C(=O)NC1CC2CCC1C2` (stereo unspecified) the T/C (dose: 3.75 mg/kg/injection, schedule: Q01DX Z (sc), vehicle: carboxymethylcellulose (CMC)) was 94 % of control, the T/C (dose: 7.5 mg/kg/injection, schedule: Q01DX Z (sc), vehicle: carboxymethylcellulose (CMC)) was 94 % of control and the T/C (dose: 15.0 mg/kg/injection, schedule: Q01DX Z (sc), vehicle: carboxymethylcellulose (CMC)) was 117 % of control. The T/C (dose: 30.0 mg/kg/injection, schedule: Q01DX Z (sc), vehicle: carboxymethylcellulose (CMC)) was 288 % of control and the T/C (dose: 60.0 mg/kg/injection, schedule: Q01DX Z (sc), vehicle: carboxymethylcellulose (CMC)) was 200 % of control.
With `CCn1cnc2c(=S)nc[nH]c21` the T/C [4] was 120 % of control.
With `Nc1nc([Se]c2nc(N)nc3c2ncn3C2OC(CO)C(O)C2O)c2ncn(C3OC(CO)C(O)C3O)c2n1` (stereo unspecified) the T/C (dose: 12.5 mg/kg/injection, schedule: Q01DX005 (ip), vehicle: distilled water + Tween-80) was 106 % of control, the T/C (dose: 25.0 mg/kg/injection, schedule: Q01DX005 (ip), vehicle: distilled water + Tween-80) was 115 % of control and the T/C (dose: 36.0 mg/kg/injection, schedule: Q01DX009 (ip), vehicle: distilled water + Tween-80) was 151 % of control. The T/C (dose: 50.0 mg/kg/injection, schedule: Q01DX005 (ip), vehicle: distilled water + Tween-80) was 122 % of control, the T/C (dose: 60.0 mg/kg/injection, schedule: Q01DX009 (ip), vehicle: distilled water + Tween-80) was 151 % of control and 168 % of control and the T/C (dose: 100.0 mg/kg/injection, schedule: Q01DX009 (ip), vehicle: distilled water + Tween-80) was 156 % of control and 164 % of control. For the same compound, the T/C (dose: 167.0 mg/kg/injection, schedule: Q01DX009 (ip), vehicle: distilled water + Tween-80) was 255 % of control and 297 % of control.
`Nc1cc(C(=O)Nc2ccc(C3=NCCN3)cc2)ccc1C(=O)Nc1ccc(C2=NCCN2)cc1` was tested, and the T/C (dose: 3.0 mg/kg/injection, schedule: Q01DX Z (sc), vehicle: methylcellulose (MC)) was 111 % of control, the T/C (dose: 3.0 mg/kg/injection, schedule: Q01DX Z (sc), vehicle: water) was 116 % of control and the T/C (dose: 5.0 mg/kg/injection, schedule: Q01DX Z (sc), vehicle: methylcellulose (MC)) was 200 % of control. The T/C (dose: 5.0 mg/kg/injection, schedule: Q01DX Z (sc), vehicle: water) was 266 % of control, the T/C (dose: 8.4 mg/kg/injection, schedule: Q01DX Z (sc), vehicle: methylcellulose (MC)) was 255 % of control and the T/C (dose: 8.4 mg/kg/injection, schedule: Q01DX Z (sc), vehicle: water) was 294 % of control. The T/C (dose: 14.0 mg/kg/injection, schedule: Q01DX Z (sc), vehicle: methylcellulose (MC)) was 200 % of control, the T/C (dose: 14.0 mg/kg/injection, schedule: Q01DX Z (sc), vehicle: water) was 266 % of control and the T/C (dose: 23.0 mg/kg/injection, schedule: Q01DX Z (sc), vehicle: methylcellulose (MC)) was 161 % of control. The T/C (dose: 23.0 mg/kg/injection, schedule: Q01DX Z (sc), vehicle: water) was 288 % of control, the T/C (dose: 39.0 mg/kg/injection, schedule: Q01DX Z (sc), vehicle: methylcellulose (MC)) was 155 % of control and the T/C (dose: 39.0 mg/kg/injection, schedule: Q01DX Z (sc), vehicle: water) was 211 % of control. The T/C [1] was 155 % of control and the T/C (dose: 65.0 mg/kg/injection, schedule: Q01DX Z (sc), vehicle: water) was 200 % of control.
`S=c1nc[nH]c2c1ncn2C1CCCC1` was tested, and the T/C [2] was 100 % of control, the T/C [3] was 100 % of control and the T/C (dose: 300.0 mg/kg/injection, schedule: Q01DX Z (sc), vehicle: methylcellulose (MC)) was 100 % of control. The T/C (dose: 500.0 mg/kg/injection, schedule: Q01DX Z (sc), vehicle: methylcellulose (MC)) was 100 % of control, the T/C [4] was 100 % of control and the T/C (dose: 1388.0 mg/kg/injection, schedule: Q01DX Z (sc), vehicle: methylcellulose (MC)) was 100 % of control.
In the case of `O=C1c2ccccc2C(=O)c2c(NCCNCCO)ccc(O)c21`, the T/C (dose: 5.0 mg/kg/injection, schedule: Q01DX009 (ip), vehicle: suspension in saline) is reported as 103 % of control and 104 % of control, the T/C (dose: 10.0 mg/kg/injection, schedule: Q01DX009 (ip), vehicle: suspension in saline) is reported as 103 % of control and 106 % of control and the T/C (dose: 20.0 mg/kg/injection, schedule: Q01DX009 (ip), vehicle: suspension in saline) is reported as 104 % of control and 108 % of control. The T/C (dose: 40.0 mg/kg/injection, schedule: Q01DX009 (ip), vehicle: suspension in saline) was 103 % of control and 106 % of control and the T/C (dose: 80.0 mg/kg/injection, schedule: Q01DX009 (ip), vehicle: suspension in saline) was 114 % of control and 116 % of control.
